Data: patent US12275731B2, “Azaindole inhibitors of wild-type and mutant forms of LRRK2” (DANA-FARBER CANCER INSTITUTE, INC., priority 2018, dated 2025)
Where two headings read alike, the source gives them in different places.

Key:
LRRK2(G2019S) = LRRK2(G2019S) (Homo sapiens, UniProt Q5S007, G2019S); assay: LRRK2 G2019S kinase inhibition assay (ADP-Glo); format: biochemical; parameters: purchased SignalChem L10-12GG
Procedure: (§1) IC50 experiments were performed for inventive compounds. An exemplary kit to perform this assay includes the Adapta™ Screening Protocol and Assay Conditions by Invitrogen™ (Fisher Scientific™, Catalog No. PV5099).
(§2) All LRRK2 kinase inhibition assays were conducted by using Promega ADP-Glo™ Kinase assay systems (Catalog number; V4475). Inhibitors were tested with 12 concentrations over a 5-fold serial dilution series (50 μM, 10 μM, 2 μM, 400 nM, 80 nM, 16 nM, 3.2 nM, […]) and PF06447475 as positive control. For the LRRK2 wild type (WT) enzyme assay, each inhibitor was mixed with 0.2 μg/μL of substrate (LRRKtide, SignalChem, Richmond, BC, Canada), […] (Invitrogen™, Carlsbad, CA), 24 ng of LRRK2 WT enzyme (Thermo Fisher Scientific, PR8604B) in 384-well plate. For LRRK G2019S, each compound was mixed with 0.2 μg/μL of substrate, […], 16 ng of LRRK2 G2019S enzyme (SignalChem, L10-12GG). All samples were diluted with kinase reaction buffer (40 mmol/L TrisHCl, 10 mmol/L MgCl2, and 0.1 μg/μL BSA (bovine serum albumin)). After 2 hours at 25° C., ADP-Glo™ (Promega, Madison, WI) reagent was added and the samples were incubated at rt for 40 min. Finally, Kinase Detection Reagent was added and the resulting mixtures were allowed to react at rt for 10 min. Luminescence signals were detected using Synergy™ Neo2 microplate reader (Bio-Tek). Compound inhibition curve was fitted using Graphpad Prism 8.0 software.

LRRK2 WT enzyme = target: T1, LRRK2 WT enzyme (Homo sapiens, UniProt Q5S007); assay: LRRK2 wild type kinase inhibition assay (ADP-Glo); format: biochemical
T1 construct: purchased Thermo Fisher Scientific PR8604B
Procedure: as §1, §2

[1] = Table 1, read-out: IC50 (nM) LRRK2 G2019S
[2] = Table 1, read-out: IC50 (nM) LRRK2 wt
[3] = Table 2, class symbols, read-out: Enzyme activity against LRRK2 G2019S (IC50)
[4] = Table 2, class symbols, read-out: Enzyme activity against LRRK2 WT (IC50)

T1 sequence (Q5S007 970-2527 limits assumed): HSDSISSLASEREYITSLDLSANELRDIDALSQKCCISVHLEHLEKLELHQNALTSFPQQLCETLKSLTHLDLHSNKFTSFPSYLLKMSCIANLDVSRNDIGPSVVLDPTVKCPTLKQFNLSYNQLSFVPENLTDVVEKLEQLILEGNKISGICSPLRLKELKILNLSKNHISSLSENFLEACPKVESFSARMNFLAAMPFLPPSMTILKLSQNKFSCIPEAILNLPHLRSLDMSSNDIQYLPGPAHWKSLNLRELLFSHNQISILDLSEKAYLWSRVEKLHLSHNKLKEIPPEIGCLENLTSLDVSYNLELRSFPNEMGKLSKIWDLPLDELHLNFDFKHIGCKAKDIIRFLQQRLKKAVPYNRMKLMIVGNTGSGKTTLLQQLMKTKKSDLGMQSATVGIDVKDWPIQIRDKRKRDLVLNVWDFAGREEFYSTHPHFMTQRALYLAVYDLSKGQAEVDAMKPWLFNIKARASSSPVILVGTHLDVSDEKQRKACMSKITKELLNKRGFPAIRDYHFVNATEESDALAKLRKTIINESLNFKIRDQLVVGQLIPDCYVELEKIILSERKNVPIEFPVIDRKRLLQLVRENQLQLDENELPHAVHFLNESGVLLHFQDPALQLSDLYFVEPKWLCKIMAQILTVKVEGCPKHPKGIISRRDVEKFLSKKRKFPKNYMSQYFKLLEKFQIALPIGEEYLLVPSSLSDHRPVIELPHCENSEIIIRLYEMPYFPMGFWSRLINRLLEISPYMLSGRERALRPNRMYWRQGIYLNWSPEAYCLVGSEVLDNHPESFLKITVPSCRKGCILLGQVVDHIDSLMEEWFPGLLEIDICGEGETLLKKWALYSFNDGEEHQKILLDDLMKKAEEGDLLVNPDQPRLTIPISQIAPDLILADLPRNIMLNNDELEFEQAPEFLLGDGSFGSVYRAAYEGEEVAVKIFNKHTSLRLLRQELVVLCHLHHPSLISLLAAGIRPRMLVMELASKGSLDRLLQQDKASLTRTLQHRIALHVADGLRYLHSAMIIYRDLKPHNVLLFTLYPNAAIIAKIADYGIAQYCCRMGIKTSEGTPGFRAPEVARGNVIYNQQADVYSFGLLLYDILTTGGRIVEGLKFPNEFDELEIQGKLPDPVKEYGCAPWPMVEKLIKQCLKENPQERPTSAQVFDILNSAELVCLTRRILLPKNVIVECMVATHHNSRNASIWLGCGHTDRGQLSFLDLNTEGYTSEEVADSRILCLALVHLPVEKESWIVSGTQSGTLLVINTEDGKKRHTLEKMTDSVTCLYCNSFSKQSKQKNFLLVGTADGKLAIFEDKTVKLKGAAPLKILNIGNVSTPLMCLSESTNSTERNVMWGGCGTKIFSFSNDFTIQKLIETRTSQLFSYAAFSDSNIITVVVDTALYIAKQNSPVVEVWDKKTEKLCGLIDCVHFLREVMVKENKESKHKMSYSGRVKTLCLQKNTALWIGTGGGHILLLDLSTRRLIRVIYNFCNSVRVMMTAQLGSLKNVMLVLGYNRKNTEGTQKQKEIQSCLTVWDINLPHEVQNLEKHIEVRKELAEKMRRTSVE
LRRK2(G2019S), sequence (Q5S007 970-2527 G2019S limits assumed): as the sequence (Q5S007 970-2527 limits assumed) above, with G1050S counted along it

SMILES | IC50 (LRRK2(G2019S); [1]) [nM] | IC50 (LRRK2 WT enzyme; [2]) [nM] | IC50 (LRRK2(G2019S); [3]) [nM] | IC50 (LRRK2 WT enzyme; [4]) [nM]
CC(C)Nc1c(-c2ccn(C)n2)cnc2[nH]cc(Cl)c12 [Compound 12, 3-chloro-N-isopropyl-5-(1-methyl-1H-pyrazol-3-yl)-1H-pyrrolo[2,3-b]pyridin-4-amine] | 514 | 136 | – | –
CC(C)Nc1c(-c2ccc(C(=O)N3CCC(N4CCOCC4)CC3)cc2)cnc2[nH]ccc12 [Compound 54, (4-(4-(isopropylamino)-1H-pyrrolo[2,3-b]pyridin-5-yl)phenyl)(4-morpholinopiperidin-1-yl)methanone] | – | – | 10 to 100 | 10 to 100
CNc1c(-c2cnn(C3CCOCC3)c2)cnc2[nH]cc(Cl)c12 [Compound 6, 3-chloro-N-methyl-5-(1-(tetrahydro-2H-pyran-4-yl)-1H-pyrazol-4-yl)-1H-pyrrolo[2,3-b]pyridin-4-amine] | 15 | 10 | – | –
CNc1c(-c2cn(C3CCOCC3)nc2C2CC2)cnc2[nH]cc(Cl)c12 [Compound 13, 3-chloro-5-(3-cyclopropyl-1-(tetrahydro-2H-pyran-4-yl)-1H-pyrazol-4-yl)-N-methyl-1H-pyrrolo[2,3-b]pyridin-4-amine] | > 10000 | 3600 | – | –
CNc1c(C(F)(F)F)cnc2[nH]cc(-c3cnn(C4CCN(C)CC4)c3)c12 [Compound 8, N-methyl-3-(1-(1-methylpiperidin-4-yl)-1H-pyrazol-4-yl)-5-(trifluoromethyl)-1H-pyrrolo[2,3-b]pyridin-4-amine] | 61 | 103 | – | –
CNc1c(-c2cnn(C(C)(C)C#N)c2)cnc2[nH]ccc12 [Compound 1, 2-methyl-2-(4-(4-(methylamino)-1H-pyrrolo[2,3-b]pyridin-5-yl)-1H-pyrazol-1-yl)propanenitrile] | 326 | 544 | – | –
CNc1c(-c2cnn(C3CCOCC3)c2)cnc2[nH]ccc12 [Compound 3, N-methyl-5-(1-(tetrahydro-2H-pyran-4-yl)-1H-pyrazol-4-yl)-1H-pyrrolo[2,3-b]pyridin-4-amine] | 164 | 264 | – | –
CNc1c(C(F)(F)F)cnc2[nH]cc(-c3cnn(C(C)(C)C#N)c3)c12 [Compound 7, 2-methyl-2-(4-(4-(methylamino)-5-(trifluoromethyl)-1H-pyrrolo[2,3-b]pyridin-3-yl)-1H-pyrazol-1-yl)propanenitrile] | 26 | 38 | – | –
CCNc1c(-c2ccc(C(=O)N3CCOCC3)cc2)cnc2[nH]cc(Cl)c12 [Compound 91, (4-(3-chloro-4-(ethylamino)-1H-pyrrolo[2,3-b]pyridin-5-yl)phenyl)(morpholino)methanone] | – | – | 10 to 100 | 10 to 100
CCc1cc(-c2cnc3[nH]cc(Cl)c3c2NC(C)C)nn1C [Compound 10, 3-chloro-5-(5-ethyl-1-methyl-1H-pyrazol-3-yl)-N-isopropyl-1H-pyrrolo[2,3-b]pyridin-4-amine] | 523 | 259 | – | –
CNc1c(-c2cnn(C(C)(C)C#N)c2)cnc2[nH]cc(Cl)c12 [Compound 4, 2-(4-(3-chloro-4-(methylamino)-1H-pyrrolo[2,3-b]pyridin-5-yl)-1H-pyrazol-1-yl)-2-methylpropanenitrile] | 14 | 15 | – | –
CNc1c(-c2ccc(C(=O)N3CCOCC3)cc2)cnc2[nH]cc(Cl)c12 [Compound 90, (4-(3-chloro-4-(methylamino)-1H-pyrrolo[2,3-b]pyridin-5-yl)phenyl)(morpholino)methanone] | – | – | < 10 | < 10
O=C(c1ccc(-c2cnc3[nH]cc(Cl)c3c2NC2CC2)cc1)N1CCC(N2CCOCC2)CC1 [Compound 99, (4-(3-chloro-4-(cyclopropylamino)-1H-pyrrolo[2,3-b]pyridin-5-yl)phenyl)(4-morpholinopiperidin-1-yl)methanone] | – | – | > 100 | 10 to 100
O=C(c1ccc(-c2cnc3[nH]cc(Cl)c3c2NC2CC2)cc1)N1CCOCC1 [Compound 93, (4-(3-chloro-4-(cyclopropylamino)-1H-pyrrolo[2,3-b]pyridin-5-yl)phenyl)(morpholino)methanone] | – | – | 10 to 100 | 10 to 100
CNc1c(-c2ccn(C)n2)cnc2[nH]cc(Cl)c12 [Compound 11, 3-chloro-N-methyl-5-(1-methyl-1H-pyrazol-3-yl)-1H-pyrrolo[2,3-b]pyridin-4-amine] | 30.9 | 8.4 | – | –
CCNc1c(-c2cnn([C@H]3CCN(C(C)=O)C[C@@H]3F)c2)cnc2[nH]cc(Cl)c12 [Compound 78, 1-((3S,4S)-4-(4-(3-chloro-4-(ethylamino)-1H-pyrrolo[2,3-b]pyridin-5-yl)-1H-pyrazol-1-yl)-3-fluoropiperidin-1-yl)ethan-1-one] | – | – | 10 to 100 | 10 to 100
COCCNc1c(-c2cnn([C@H]3CCN(C(C)=O)C[C@@H]3F)c2)cnc2[nH]cc(Cl)c12 [Compound 81, 1-((3S,4S)-4-(4-(3-chloro-4-((2-methoxyethyl)amino)-1H-pyrrolo[2,3-b]pyridin-5-yl)-1H-pyrazol-1-yl)-3-fluoropiperidin-1-yl)ethan-1-one] | – | – | > 100 | 10 to 100
F[C@H]1CN(C2COC2)CC[C@@H]1n1cc(-c2cnc3[nH]ccc3c2NC2CCCC2)cn1 [Compound 31, N-cyclopentyl-5-(1-((3S,4S)-3-fluoro-1-(oxetan-3-yl)piperidin-4-yl)-1H-pyrazol-4-yl)-1H-pyrrolo[2,3-b]pyridin-4-amine] | – | – | 10 to 100 | 10 to 100
CNc1c(-c2nn(C)c3ccc(C#N)cc23)cnc2[nH]cc(Cl)c12 [Compound 14, 3-(3-chloro-4-(methylamino)-1H-pyrrolo[2,3-b]pyridin-5-yl)-1-methyl-1H-indazole-5-carbonitrile] | 305 | 95.2 | – | –
CNc1c(-c2c3cc(OC)ccc3nn2C)cnc2[nH]cc(Cl)c12 [Compound 16, 3-chloro-5-(5-methoxy-2-methyl-2H-indazol-3-yl)-N-methyl-1H-pyrrolo[2,3-b]pyridin-4-amine] | > 10000 | 6230 | – | –
CNc1c(-c2nn(C)c3ccc(OC)cc23)cnc2[nH]cc(Cl)c12 [Compound 15, 3-(3-chloro-4-(methylamino)-1H-pyrrolo[2,3-b]pyridin-5-yl)-5-methoxy-1-methyl-1H-indazole] | 397 | 140 | – | –
CNc1c(-c2cnn(C3CCN(C)CC3)c2)cnc2[nH]cc(Cl)c12 [Compound 5, 3-chloro-N-methyl-5-(1-(1-methylpiperidin-4-yl)-1H-pyrazol-4-yl)-1H-pyrrolo[2,3-b]pyridin-4-amine] | 20 | 22 | – | –
CNc1c(-c2cnn([C@H]3CCN(C4COC4)C[C@@H]3F)c2)cnc2[nH]cc(Cl)c12 [Compound 70, 3-chloro-5-(1-((3S,4S)-3-fluoro-1-(oxetan-3-yl)piperidin-4-yl)-1H-pyrazol-4-yl)-N-methyl-1H-pyrrolo[2,3-b]pyridin-4-amine] | – | – | 10 to 100 | 10 to 100
CC(=O)N1CC[C@H](n2cc(-c3cnc4[nH]ccc4c3NC3CCCC3)cn2)[C@@H](F)C1 [Compound 38, 1-((3S,4S)-4-(4-(4-(cyclopentylamino)-1H-pyrrolo[2,3-b]pyridin-5-yl)-1H-pyrazol-1-yl)-3-fluoropiperidin-1-yl)ethan-1-one] | – | – | 10 to 100 | 10 to 100
CCc1cc(-c2cnc3[nH]cc(Cl)c3c2NC)nn1C [Compound 9, 3-chloro-5-(5-ethyl-1-methyl-1H-pyrazol-3-yl)-N-methyl-1H-pyrrolo[2,3-b]pyridin-4-amine] | 83.1 | 36.6 | – | –
CCNc1c(-c2ccc(C(=O)N3CCC(N4CCOCC4)CC3)cc2)cnc2[nH]cc(Cl)c12 [Compound 97, (4-(3-chloro-4-(ethylamino)-1H-pyrrolo[2,3-b]pyridin-5-yl)phenyl)(4-morpholinopiperidin-1-yl)methanone] | – | – | 10 to 100 | < 10
CC(C)Nc1c(-c2ccc(C(=O)N3CCOCC3)cc2)cnc2[nH]ccc12 [Compound 48, (4-(4-(isopropylamino)-1H-pyrrolo[2,3-b]pyridin-5-yl)phenyl)(morpholino)methanone] | – | – | 10 to 100 | 10 to 100
CNc1c(-c2cnn(C3CCN(C)CC3)c2)cnc2[nH]ccc12 [Compound 2, N-methyl-5-(1-(1-methylpiperidin-4-yl)-1H-pyrazol-4-yl)-1H-pyrrolo[2,3-b]pyridin-4-amine] | 825 | 891 | – | –
